Measurements taken from the NIST ThermoML archive (doi:10.1021/je030147g).

Experiments:
[1] = refractive index (Na D-line) (dimensionless); xn = mol fraction of the nth substance listed; conditions: 101.33 kPa, Liquid
[2] = xn = mol fraction of the nth substance listed; conditions: 101.33 kPa, Liquid

CCCCN(CCCC)CCCC [tributylamine] + C1CCOC1
Conditions	mass density, [2] [kg/m3]	refractive index, [1]	speed of sound, [2] [m/s]	viscosity, [2] [mPa·s]
298.15 K, x1 = 0.1033	853.3	1.412	1283	0.571
298.15 K, x1 = 0.2033	833.4	1.415	1278	0.656
298.15 K, x1 = 0.3041	818.9	1.418	1274	0.741
298.15 K, x1 = 0.4012	808.1	1.42	1271	0.818
298.15 K, x1 = 0.5024	799.2	1.4229	1269	0.897
298.15 K, x1 = 0.5974	792.5	1.4235	1267	0.967
298.15 K, x1 = 0.6814	787.5	1.4249	1266	1.028
298.15 K, x1 = 0.7898	782.1	1.4265	1264	1.1
298.15 K, x1 = 0.8941	777.8	1.4269	1263	1.167
298.15 K, x1 = 1	773.9	1.4276	1262	1.239
303.15 K, x1 = 0.1033	847.9	1.4094	–	0.539
303.15 K, x1 = 0.2033	828.4	1.4141	–	0.618
303.15 K, x1 = 0.3041	814.2	1.4155	–	0.693
303.15 K, x1 = 0.4012	803.5	1.4178	–	0.763
303.15 K, x1 = 0.5024	794.7	1.4203	–	0.833
303.15 K, x1 = 0.5974	788.2	1.4211	–	0.896
303.15 K, x1 = 0.6814	783.1	1.4226	–	0.949
303.15 K, x1 = 0.7898	777.9	1.4238	–	1.014
303.15 K, x1 = 0.8941	773.6	1.4246	–	1.071
303.15 K, x1 = 1	769.2	1.4254	–	1.124
308.15 K, x1 = 0.1033	842.5	1.4068	–	0.509
308.15 K, x1 = 0.2033	823.5	–	–	0.581
308.15 K, x1 = 0.3041	809.3	1.413	–	0.646
308.15 K, x1 = 0.4012	798.9	1.4156	–	0.708
308.15 K, x1 = 0.5024	790.3	1.4178	–	0.769
308.15 K, x1 = 0.5974	783.8	1.4188	–	0.825
308.15 K, x1 = 0.6814	778.9	1.4203	–	0.871
308.15 K, x1 = 0.7898	773.6	1.4212	–	0.928
308.15 K, x1 = 0.8941	769.4	1.4224	–	0.976
308.15 K, x1 = 1	765.7	1.4228	–	1.02
